Source: US20240409585A1, “MACROCYCLIC IMMUNOMODULATORS” (priority 2021, published 2024)
Numbered stars: 1 amine (or outer) side, 2 acyl side, 3 side chain; on linkers, the order of the positions; unused ones are H or OH. Bridge positions count the residues as written; N and C are the ends. Square brackets hold non-standard residues; d marks the D form. Peptide text beside a SMILES is read from it. * marks the point of attachment. ξ: configuration not given here. Phe(4-COOH) = N[C@@H](Cc1ccc(C(=O)O)cc1)C(=O)O; X23 = O=C([C@H](Cc1cc2ccccc2cn1)N[*:1])[*:2]; Ala(4-thiazolyl) = N[C@@H](Cc1cscn1)C(=O)O; Bip = N[C@@H](Cc1ccc(-c2ccccc2)cc1)C(=O)O; Phe(3-Me) = Cc1cccc(C[C@H](N)C(=O)O)c1; Val(3-OH) = CC(C)(O)[C@H](N)C(=O)O; aIle = CC[C@@H](C)[C@H](N)C(=O)O; 4Pal = N[C@@H](Cc1ccncc1)C(=O)O; Cha = N[C@@H](CC1CCCCC1)C(=O)O; Ile(3ξ) = CCC(C)[C@H](N)C(=O)O; Thr(3ξ) = CC(O)[C@H](N)C(=O)O; Pen = CC(C)(S)[C@H](N)C(=O)O; Carboxymethyl = O=C(O)C*; NMeA = CN[C@@H](C)C(=O)O; Pra = C#CC[C@H](N)C(=O)O; Dab = NCC[C@H](N)C(=O)O; Dap = NC[C@H](N)C(=O)O; Piv = CC(C)(C)C(=O)*; ξV = CC(C)C(N)C(=O)O

Target: T1, PE-labeled human PD-L1-Ig binding to Jurkat cell line over-expressing human PD-1 (Jurkat-PD-1) (Homo sapiens, UniProt Q15116)
T1 construct: expressed in transfected cells; host or cells: Jurkat
Assay: Jurkat-PD-1 Cell Binding High-Content Screening Assay (CBA): Method 1
Details: Jurkat-hPD-1 cells, PE-labeled PD-L1-Ig 20 nM final; read-out: Jurkat HPDL1 PD1 IC50 (uM) (Method 1)

T1 sequence (Q15116 25-288): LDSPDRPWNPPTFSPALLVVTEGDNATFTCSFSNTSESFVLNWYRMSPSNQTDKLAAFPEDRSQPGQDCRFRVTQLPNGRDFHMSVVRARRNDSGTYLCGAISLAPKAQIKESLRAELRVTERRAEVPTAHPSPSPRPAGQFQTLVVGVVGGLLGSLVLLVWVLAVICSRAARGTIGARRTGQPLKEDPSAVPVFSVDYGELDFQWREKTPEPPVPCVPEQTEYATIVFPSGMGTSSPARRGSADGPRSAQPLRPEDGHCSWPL

| SMILES | IC50 [µM] |
| --- | --- |
| CC(C)C[C@@H]1NC(=O)[C@H](CCN)NC(=O)[C@@H](CC(C)C)NC(=O)[C@H](C)N(C)C(=O)[C@H](Cc2cnc[nH]2)NC(=O)[C@H](Cc2ccc(-c3ccccc3)cc2)NC(=O)[C@H](C(C)C)NC(=O)[C@H](Cc2c[nH]c3ccccc23)NC(=O)[C@H](CC(=O)O)NC(=O)[C@H](Cc2ccc(OCC(=O)O)cc2)NC(=O)[C@H](CN)NC(=O)CSC[C@@H](C(=O)N[C@@H](C)C(N)=O)NC(=O)[C@H]([C@@H](C)O)NC(=O)[C@H](C(C)C)NC1=O [Compound 1438] ({CH2CO}-[Dap]Y(Carboxymethyl)DWV[Bip]H[NMeA][dL][Dab]LVTCA-NH2; thioether N-14) | 0.07 |
| CC(C)C[C@@H]1NC(=O)[C@H](Cc2c[nH]c3ccccc23)NC(=O)[C@H](CC(=O)O)NC(=O)[C@H](Cc2ccncc2)NC(=O)[C@H](Cc2ccc(OCC(=O)O)cc2)NC(=O)CSC[C@@H](C(=O)N[C@@H](CCN)C(N)=O)NC(=O)[C@H](CO)NC(=O)[C@H](C(C)C)NC(=O)[C@H](CC2CCCCC2)NC(=O)[C@H](CCN)NC(=O)[C@@H](CC(C)C)NC(=O)[C@H](C)N(C)C(=O)[C@H](C(C)C)NC(=O)[C@H](Cc2ccc(-c3ccccc3)cc2)NC1=O [Compound 1905] ({CH2CO}-Y(Carboxymethyl)[4Pal]DWL[Bip]V[NMeA][dL][Dab][Cha]VSC[Dab]-NH2; thioether N-14) | 0.01 |
| Cc1cccc(C[C@@H]2NC(=O)[C@H](CC(=O)O)NC(=O)[C@H](Cc3ccc(OCC(=O)O)cc3)NC(=O)[C@H](CN)NC(=O)CSC[C@@H](C(=O)N[C@@H](CCN)C(N)=O)NC(=O)[C@H]([C@@H](C)O)NC(=O)[C@H](C(C)C)NC(=O)[C@H](CC3CCCCC3)NC(=O)[C@H](CCNC(=O)C(C)(C)C)NC(=O)[C@@H](CC(C)C)NC(=O)[C@H](C)N(C)C(=O)[C@H](Cc3ccc(OCC(=O)O)cc3)NC(=O)[C@H](Cc3ccc(-c4ccccc4)cc3)NC(=O)[C@H](Cc3ccc(OCC(=O)O)cc3)NC2=O)c1 [Compound 1864] ({CH2CO}-[Dap]Y(Carboxymethyl)D[Phe(3-Me)]Y(Carboxymethyl)[Bip]Y(Carboxymethyl)[NMeA][dL][Dab](Piv)[Cha]VTC[Dab]-NH2; thioether N-14) | 0.04 |
| CCC(C)[C@@H]1NC(=O)[C@H](Cc2ccc(-c3ccccc3)cc2)NC(=O)[C@H](C(C)C)NC(=O)[C@H](Cc2c[nH]c3ccccc23)NC(=O)[C@H](CC(=O)O)NC(=O)[C@H](Cc2ccc(O)cc2)NC(=O)[C@H](Cc2cc3ccccc3cn2)NC(=O)CSC[C@@H](C(=O)N[C@@H](C)C(N)=O)NC(=O)[C@H](C(C)O)NC(=O)[C@H](C(C)C)NC(=O)[C@H](CC2CCCCC2)NC(=O)[C@H](CCN)NC(=O)[C@@H](CC(C)C)NC(=O)[C@H](C)N(C)C1=O (stereo partly drawn) [Compound 2044] ({CH2CO}-[X23]YDWV[Bip][Ile(3ξ)][NMeA][dL][Dab][Cha]V[Thr(3ξ)]CA-NH2; thioether N-14) | 0.02 |
| C#CC[C@H](NC(=O)[C@@H](C)NC(=O)[C@@H]1CSCC(=O)N[C@@H](Cc2ccc(OCC(=O)O)cc2)C(=O)N[C@@H](Cc2ccc(C(=O)O)cc2)C(=O)N[C@@H](CC(=O)O)C(=O)N[C@@H](Cc2c[nH]c3ccccc23)C(=O)N[C@@H](CC(C)C)C(=O)N[C@@H](Cc2ccc(-c3ccccc3)cc2)C(=O)N[C@@H](C(C)C)C(=O)N(C)[C@@H](C)C(=O)N[C@H](CC(C)C)C(=O)N[C@@H](CCN)C(=O)N[C@@H](CC2CCCCC2)C(=O)N[C@@H](C(C)(C)O)C(=O)N[C@@H](CO)C(=O)N1)C(=O)O [Compound 1941] ({CH2CO}-Y(Carboxymethyl)[Phe(4-COOH)]DWL[Bip]V[NMeA][dL][Dab][Cha][Val(3-OH)]SC[dA][Pra]-OH; thioether N-14) | 0.01 |
| CC(C)C[C@@H]1NC(=O)[C@H](Cc2c[nH]c3ccccc23)NC(=O)[C@H](CC(=O)O)NC(=O)[C@H](Cc2ccc(O)cc2)NC(=O)[C@H](Cc2ccccc2)NC(=O)CSC[C@@H](C(=O)N[C@@H](C)C(N)=O)NC(=O)[C@H](CO)NC(=O)[C@H](C(C)C)NC(=O)[C@H](CC(C)C)NC(=O)[C@H](CC(N)=O)NC(=O)[C@@H](CCC(=O)O)NC(=O)[C@H](C)N(C)C(=O)[C@H](C(C)C)NC(=O)[C@H](Cc2ccc(-c3ccccc3)cc2)NC1=O [Compound 1820] ({CH2CO}-FYDWL[Bip]V[NMeA][dE]NLVSCA-NH2; thioether N-14) | 0.48 |
| CC(C)C[C@@H]1NC(=O)[C@H](Cc2c[nH]c3ccccc23)NC(=O)[C@H](CC(=O)O)NC(=O)[C@H](Cc2ccc(O)cc2)NC(=O)[C@H](Cc2ccccc2)NC(=O)CSC[C@@H](C(=O)N[C@@H](C)C(N)=O)NC(=O)[C@H]([C@@H](C)O)NC(=O)[C@H](C(C)C)NC(=O)[C@H](CC(C)C)NC(=O)[C@H](CC(N)=O)NC(=O)[C@@H](CC(C)C)NC(=O)[C@H](C)N(C)C(=O)[C@H](C(C)C)NC(=O)[C@H](Cc2ccc(-c3ccccc3)cc2)NC1=O [Compound 1467] ({CH2CO}-FYDWL[Bip]V[NMeA][dL]NLVTCA-NH2; thioether N-14) | 0.02 |
| CC(C)C[C@@H]1NC(=O)[C@H](CCN)NC(=O)[C@@H](CC(C)C)NC(=O)[C@H](C)N(C)C(=O)[C@H](C(C)C)NC(=O)[C@H](Cc2ccc(-c3ccccc3)cc2)NC(=O)[C@H](C(C)C)NC(=O)[C@H](Cc2c[nH]c3ccccc23)NC(=O)[C@H](CC(=O)O)NC(=O)[C@H](Cc2ccc(O)cc2)NC(=O)[C@H](Cc2cnc[nH]2)NC(=O)CSC[C@@H](C(=O)N[C@@H](C)C(N)=O)NC(=O)[C@H]([C@@H](C)O)NC(=O)[C@H](C(C)C)NC1=O [Compound 1358] ({CH2CO}-HYDWV[Bip]V[NMeA][dL][Dab]LVTCA-NH2; thioether N-14) | 0.01 |
| CC(C)C[C@@H]1NC(=O)[C@H](Cc2c[nH]c3ccccc23)NC(=O)[C@H](CC(=O)O)NC(=O)[C@H](Cc2ccc(OCC(=O)O)cc2)NC(=O)[C@H](Cc2ccc(OCC(=O)O)cc2)NC(=O)CSC(C)(C)[C@@H](C(N)=O)NC(=O)[C@H](CO)NC(=O)[C@H](C(C)C)NC(=O)[C@H](CC(C)C)NC(=O)[C@H](CCN)NC(=O)[C@@H](CC(C)C)NC(=O)[C@H](C)N(C)C(=O)[C@H](C(C)C)NC(=O)[C@H](Cc2ccc(-c3ccccc3)cc2)NC1=O [Compound 2260] ({CH2CO}-Y(Carboxymethyl)Y(Carboxymethyl)DWL[Bip]V[NMeA][dL][Dab]LVS[Pen]-NH2; thioether N-14) | 0.26 |
| CC[C@@H](C)[C@@H]1NC(=O)[C@H](Cc2ccc(-c3ccccc3)cc2)NC(=O)[C@H](CC(C)C)NC(=O)[C@H](Cc2c[nH]c3ccccc23)NC(=O)[C@H](CC(=O)O)NC(=O)[C@H](Cc2ccc(C(=O)O)cc2)NC(=O)[C@H](Cc2ccc(OCC(=O)O)cc2)NC(=O)CSC[C@@H](C(=O)N[C@@H](CCCCN)C(N)=O)NC(=O)[C@H](Cc2cscn2)NC(=O)C(C(C)C)NC(=O)[C@H](CC(C)C)NC(=O)[C@H](CC(N)=O)NC(=O)[C@@H](CC(C)C)NC(=O)[C@H](C)N(C)C1=O (stereo partly drawn) [Compound 2107] ({CH2CO}-Y(Carboxymethyl)[Phe(4-COOH)]DWL[Bip][aIle][NMeA][dL]NL[ξV][Ala(4-thiazolyl)]CK-NH2; thioether N-14) | 0.24 |
| CC(C)C[C@@H]1NC(=O)[C@H](C)NC(=O)[C@@H](C)NC(=O)[C@H](C)N(C)C(=O)[C@H](CCC(=O)O)NC(=O)[C@H](Cc2ccc(-c3ccccc3)cc2)NC(=O)[C@H](CC(C)C)NC(=O)[C@H](Cc2c[nH]c3ccccc23)NC(=O)[C@H](CC(=O)O)NC(=O)[C@H](Cc2ccc(C(=O)O)cc2)NC(=O)[C@H](Cc2ccccc2)NC(=O)CSC[C@@H](C(=O)N[C@@H](C)C(N)=O)NC(=O)[C@H](CO)NC(=O)[C@H](C(C)C)NC1=O [Compound 1773] ({CH2CO}-F[Phe(4-COOH)]DWL[Bip]E[NMeA][dA]ALVSCA-NH2; thioether N-14) | 0.05 |
